From ChEMBL document CHEMBL4138123, “Design, synthesis and biological evaluation of novel pyrazolochalcones as potential modulators of PI3K/Akt/mTOR pathway and inducers of apoptosis in breast cancer cells” (Eur J Med Chem, 2017)

How the values were obtained:
Format in all cases: functional
SK-OV-3 [1] = test: Cytotoxicity against human SKOV3 cells assessed as cell growth at 10 uM after 48 hrs by sulforhodamine B assay relative to control; details: SK-OV-3, 48 h, read-out: Activity
UO-31 = test: Cytotoxicity against human UO31 cells assessed as cell growth at 10 uM after 48 hrs by sulforhodamine B assay relative to control; details: UO-31, 48 h, read-out: Activity
PC-3 = test: Cytotoxicity against human PC3 cells assessed as cell growth at 10 uM after 48 hrs by sulforhodamine B assay relative to control; details: PC-3, 48 h, read-out: Activity
HCC 2998 [2] = test: Cytotoxicity against human HCC2998 cells assessed as cell growth at 1 uM after 48 hrs by sulforhodamine B assay relative to control; details: HCC 2998, 48 h, read-out: Activity
UACC-257 [3] = test: Cytotoxicity against human UACC257 cells assessed as cell growth at 0.1 uM after 48 hrs by sulforhodamine B assay relative to control; details: UACC-257, 48 h, read-out: Activity
NCI-H226 = test: Cytotoxicity against human NCI-H226 cells assessed as cell growth at 1 uM after 48 hrs by sulforhodamine B assay relative to control; details: NCI-H226, 48 h, read-out: Activity
UACC-257 [4] = test: Cytotoxicity against human UACC257 cells assessed as cell growth at 10 uM after 48 hrs by sulforhodamine B assay relative to control; details: UACC-257, 48 h, read-out: Activity
HL-60(TB) = test: Cytotoxicity against human HL-60(TB) cells assessed as cell growth at 0.1 uM after 48 hrs by sulforhodamine B assay relative to control; details: HL-60, 48 h, read-out: Activity
OVCAR-3 [5] = test: Cytotoxicity against human OVCAR3 cells assessed as cell growth at 10 uM after 48 hrs by sulforhodamine B assay relative to control; details: OVCAR-3, 48 h, read-out: Activity
NCI-H322M = test: Cytotoxicity against human NCI-H322M cells assessed as cell growth at 10 uM after 48 hrs by sulforhodamine B assay relative to control; details: read-out: Activity
786-0 = test: Cytotoxicity against human 786-0 cells assessed as cell growth at 1 uM after 48 hrs by sulforhodamine B assay relative to control; details: 786-0, 48 h, read-out: Activity
UACC-62 [6] = test: Cytotoxicity against human UACC62 cells assessed as cell growth at 100 uM after 48 hrs by sulforhodamine B assay relative to control; details: UACC-62, 48 h, read-out: Activity
UACC-257 [7] = test: Cytotoxicity against human UACC257 cells assessed as cell growth at 1 uM after 48 hrs by sulforhodamine B assay relative to control; details: UACC-257, 48 h, read-out: Activity
RPMI-8226 [8] = test: Cytotoxicity against human RPMI8226 cells assessed as cell growth at 1 uM after 48 hrs by sulforhodamine B assay relative to control; details: RPMI-8226, 48 h, read-out: Activity
SK-MEL-28 = test: Cytotoxicity against human SK-MEL-28 cells assessed as cell growth at 100 uM after 48 hrs by sulforhodamine B assay relative to control; details: SK-MEL-28, 48 h, read-out: Activity
OVCAR-3 [9] = test: Cytotoxicity against human OVCAR3 cells assessed as cell growth at 100 uM after 48 hrs by sulforhodamine B assay relative to control; details: OVCAR-3, 48 h, read-out: Activity
RPMI-8226 [10] = test: Cytotoxicity against human RPMI8226 cells assessed as cell growth at 100 uM after 48 hrs by sulforhodamine B assay relative to control; details: RPMI-8226, 48 h, read-out: Activity
SK-MEL-5 = test: Cytotoxicity against human SK-MEL-5 cells assessed as cell growth at 100 uM after 48 hrs by sulforhodamine B assay relative to control; details: SK-MEL-5, 48 h, read-out: Activity
OVCAR-3 [11] = test: Cytotoxicity against human OVCAR3 cells assessed as cell growth at 0.01 uM after 48 hrs by sulforhodamine B assay relative to control; details: OVCAR-3, 48 h, read-out: Activity
TK-10 = test: Cytotoxicity against human TK10 cells assessed as cell growth at 100 uM after 48 hrs by sulforhodamine B assay relative to control; details: TK-10, 48 h, read-out: Activity
OVCAR-4 = test: Cytotoxicity against human OVCAR4 cells assessed as cell growth at 0.1 uM after 48 hrs by sulforhodamine B assay relative to control; details: OVCAR-4, 48 h, read-out: Activity
HCC 2998 [12] = test: Cytotoxicity against human HCC2998 cells assessed as cell growth at 0.1 uM after 48 hrs by sulforhodamine B assay relative to control; details: HCC 2998, 48 h, read-out: Activity
SN12C = test: Cytotoxicity against human SN12C cells assessed as growth inhibition after 48 hrs by sulforhodamine B assay
DU-145 = test: Cytotoxicity against human DU145 cells assessed as cell growth at 0.1 uM after 48 hrs by sulforhodamine B assay relative to control; details: DU-145, 48 h, read-out: Activity
KM12 [13] = test: Cytotoxicity against human KM12 cells assessed as growth inhibition after 48 hrs by sulforhodamine B assay; details: KM12, 48 h
KM12 [14] = test: Cytotoxicity against human KM12 cells assessed as cell growth at 100 uM after 48 hrs by sulforhodamine B assay relative to control; details: KM12, 48 h, read-out: Activity
K562 = test: Cytotoxicity against human K562 cells assessed as cell growth at 10 uM after 48 hrs by sulforhodamine B assay relative to control; details: K562, 48 h, read-out: Activity
BT-549 = test: Cytotoxicity against human BT549 cells assessed as cell growth at 10 uM after 48 hrs by sulforhodamine B assay relative to control; details: BT-549, 48 h, read-out: Activity
NCI/ADR-RES = test: Cytotoxicity against human NCI/ADR-RES cells assessed as cell growth at 0.01 uM after 48 hrs by sulforhodamine B assay relative to control; details: read-out: Activity
T47D = test: Cytotoxicity against human T47D cells assessed as cell growth at 10 uM after 48 hrs by sulforhodamine B assay relative to control; details: read-out: Activity
SF-539 = test: Cytotoxicity against human SF539 cells assessed as cell growth at 100 uM after 48 hrs by sulforhodamine B assay relative to control; details: SF-539, 48 h, read-out: Activity
UACC-62 [15] = test: Cytotoxicity against human UACC62 cells assessed as cell growth at 0.1 uM after 48 hrs by sulforhodamine B assay relative to control; details: UACC-62, 48 h, read-out: Activity
SK-OV-3 [16] = test: Cytotoxicity against human SKOV3 cells assessed as cell growth at 1 uM after 48 hrs by sulforhodamine B assay relative to control; details: SK-OV-3, 48 h, read-out: Activity
Hs-578T = test: Cytotoxicity against human Hs 578T cells assessed as growth inhibition after 48 hrs by sulforhodamine B assay
OVCAR-5 = test: Cytotoxicity against human OVCAR5 cells assessed as cell growth at 1 uM after 48 hrs by sulforhodamine B assay relative to control; details: OVCAR-5, 48 h, read-out: Activity
M14 = test: Cytotoxicity against human M14 cells assessed as cell growth at 1 uM after 48 hrs by sulforhodamine B assay relative to control; details: M14, 48 h, read-out: Activity

COc1cc2c(cc1OC)C(=O)/C(=C/c1cc(-c3ccc4c(c3)OCO4)n[nH]1)C2 gave a growth at 10 µM (SK-OV-3 [1]) of -18%, a growth at 10 µM (UO-31) of -91% and a growth at 10 µM (PC-3) of -75%. The growth at 1 µM (HCC 2998 [2]) was 102%, the growth at 0.1 µM (UACC-257 [3]) was 94% and the growth at 1 µM (NCI-H226) was 79%. For the same compound, the growth at 10 µM (UACC-257 [4]) was -96%, the growth at 0.1 µM (HL-60(TB)) was 95% and the growth at 10 µM (OVCAR-3 [5]) was -92%. It also gave a growth at 10 µM (NCI-H322M) of -90%, a growth at 1 µM (786-0) of 88% and a growth at 100 µM (UACC-62 [6]) of -88%. The growth at 1 µM (UACC-257 [7]) was 94%, the growth at 1 µM (RPMI-8226 [8]) was -24% and the growth at 100 µM (SK-MEL-28) was -92%. For the same compound, the growth at 100 µM (OVCAR-3 [9]) was -90%, the growth at 100 µM (RPMI-8226 [10]) was -54% and the growth at 100 µM (SK-MEL-5) was -97%. The growth at 0.01 µM (OVCAR-3 [11]) was 101%, the growth at 100 µM (TK-10) was -95% and the growth at 0.1 µM (OVCAR-4) was 98%. It also gave a growth at 0.1 µM (HCC 2998 [12]) of 97%, a GI50 (SN12C) of 1590 nM and an LC50 (SN12C) of 5620 nM. For the same compound, the TGI (SN12C) was 2990 nM, the growth at 0.1 µM (DU-145) was 101% and the GI50 (KM12 [13]) was 1290 nM. It also gave an LC50 (KM12 [13]) of 5750 nM, a TGI (KM12 [13]) of 2730 nM and a growth at 100 µM (KM12 [14]) of -80%. It also gave a growth at 10 µM (K562) of 2%, a growth at 10 µM (BT-549) of -94% and a growth at 0.01 µM (NCI/ADR-RES) of 101%. The growth at 10 µM (T47D) was -90%, the growth at 100 µM (SF-539) was -94% and the growth at 0.1 µM (UACC-62 [15]) was 106%. For the same compound, the growth at 1 µM (SK-OV-3 [16]) was 109%, the GI50 (Hs-578T) was 2610 nM and the LC50 (Hs-578T) was > 100000 nM. The TGI (Hs-578T) was 8080 nM, the growth at 1 µM (OVCAR-5) was 84% and the growth at 1 µM (M14) was 98%.
